What was measured:
[1] = in vivo; parameters: species or system rat; settings: for tissue uptake at 1 h / tissue uptake at 3 h / tissue uptake at 6 h / tissue uptake at 24 h / Tissue uptake findings (in words): rat; for tissue uptake at 1 h / tissue uptake at 3 h / tissue uptake at 6 h / tissue uptake at 24 h: iv; for Tissue uptake findings (in words): in vivo
Protocol: In animal tissue distribution studies, each rate was given 8.9 μCi (0.15 ml) tracer intravenously. The tumor-bearing rats were killed at 1, 3, 6 and 24 h. […] The amount of DES given should occupy tumor estrogen receptor sites. The methods for inducing tumors in rats was as described by those of skill in the art (radiology). […]
Female Fisher 344 rats (250-275 g) (Harlan, Inc., Indianapolis, Ind.) were inoculated with mammary tumor cells using the 13762 tumor cell line (s.c. 10^5 cells/rat). After 14 days, a tumor size of 1-2 cm was observed. For ^131 I-ITX studies, five groups of rats (N=3/group) were anesthetized with ketamine (10-15 mg/rat). The trans ^131 I-ITX was given to four of the five groups (8.9 μCi/rat, i.v.) and biodistribution was studied at 1, 3, 6 and 24 h intervals. In blocking studies, the fifth group of rats was given diethylstilbestrol (DES) (1.2 mg/rat) for 1 h, followed by 8.9 μCi of ^131 I-ITX; biodistribution was studied 6 h later. The tissues were collected at different time intervals. The tissues were weighted and counted for radioactivity. The percent of injected dose per gram of tissue weight was calculated. […]

[2] = Biodistribution in mammary tumor-bearing rats primed with estradiol; format: in vivo, rat; settings: for tissue uptake at 1 h / tissue uptake at 3 h / tissue uptake at 6 h / tissue uptake at 24 h: rat, iv
Protocol: Female Fisher 344 rats (250-275 g) (Harlan, Inc., Indianapolis, Ind.) were inoculated with mammary tumor cells using the 13762 tumor cell line (s.c. 10^5 cells/rat). After 14 days, a tumor size of 1-2 cm was observed. For ^131 I-ITX studies, five groups of rats (N=3/group) were anesthetized with ketamine (10-15 mg/rat). […] In blocking studies, the fifth group of rats was given diethylstilbestrol (DES) (1.2 mg/rat) for 1 h, followed by 8.9 μCi of ^131 I-ITX; biodistribution was studied 6 h later. The tissues were collected at different time intervals. The tissues were weighted and counted for radioactivity. The percent of injected dose per gram of tissue weight was calculated.
[…]. The biodistribution studies were conducted at 1, 3, 6 and 24 h.

[3] = tested on: rabbit uterus; assay: Gamma scintigraphic imaging of estrogen receptor sites in rabbits; format: in vivo; settings: for Rabbit uterus uptake after DES block (in words): DES 15 mg iv pretreatment
Protocol: Gamma scintigraphic images were obtained from GE Starport System (GE Company, Milwaukee, Wis.). […] Each pixel was 14 bits deep. Six New Zealand female rabbits (3-4 Kg B.W.) were administered 300 μCi of [^131 I]iodotamoxifen (iv) and multiple images at 2, 24 and 48 hours were accomplished. To ascertain the radioactivity uptake in uterus is via an ER-mediated process, the rabbits were administered with diethylstilbestrol (15 mg,iv) 1 hour prior to receiving [^131 I]ITX and the images were obtained at 2, 24 and 48 hours.

[4] = 6 h, pretreated with DES (blocking)
[5] = 24 h, listed as 131 I-ITX, 1440 min
[6] = tumor, 1 h, read-out: Tumor uptake
[7] = tumor, 3 h, read-out: Tumor uptake
[8] = tumor, 6 h, read-out: Tumor uptake
[9] = tumor, 24 h, read-out: Tumor uptake

- Tumor uptake ([1]; 1 h, 60 min): 0.181 % injected dose/gram tissue
- Tumor uptake ([1]; 3 h, 180 min): 0.229 % injected dose/gram tissue
- Blood uptake [1, 4]: 0.072 % injected dose/gram tissue
- Kidney uptake [1, 4]: 1.296 % injected dose/gram tissue
- Liver uptake [1, 4]: 4.682 % injected dose/gram tissue
- Lung uptake [1, 4]: 2.173 % injected dose/gram tissue
- Muscle uptake [1, 4]: 0.172 % injected dose/gram tissue
- Spleen uptake [1, 4]: 2.366 % injected dose/gram tissue
- Thyroid uptake [1, 4]: 0.640 % injected dose/gram tissue
- Uterus uptake [1, 4]: 0.325 % injected dose/gram tissue
- Tumor uptake ([1]; 6 h, pretreated with DES (blocking), 360 min): 0.217 % injected dose/gram tissue
- Tumor uptake ([1]; 6 h, pretreated with DES (blocking), listed as 131 I-TX, 360 min): 0.22±0.059 % injected dose/gram tissue
- Tumor uptake ([1]; 6 h, pretreated with DES (blocking), listed as [^131 I]ITX, 360 min): 0.22±0.044 % injected dose/gram tissue
- Tumor uptake ([1]; 6 h, 360 min): 0.261 % injected dose/gram tissue
- Tumor uptake ([1]; 24 h, 1440 min): 0.267 % injected dose/gram tissue
- Tumor uptake [1, 5]: 0.267±0.0160 % injected dose/gram tissue
- tissue uptake at 1 h ([1]; blood, 1 h, read-out: Blood uptake): 0.158 %ID/g
- tissue uptake at 3 h ([1]; blood, 3 h, read-out: Blood uptake): 0.121 %ID/g
- tissue uptake at 6 h ([1]; blood, 6 h, read-out: Blood uptake): 0.124 %ID/g
- tissue uptake at 24 h ([1]; blood, 24 h, read-out: Blood uptake): 0.001 %ID/g
- tissue uptake at 1 h ([1]; kidney, 1 h, read-out: Kidney uptake): 1.88 %ID/g
- tissue uptake at 3 h ([1]; kidney, 3 h, read-out: Kidney uptake): 2.37 %ID/g
- tissue uptake at 6 h ([1]; kidney, 6 h, read-out: Kidney uptake): 1.36 %ID/g
- tissue uptake at 24 h ([1]; kidney, 24 h, read-out: Kidney uptake): 0.381 %ID/g
- tissue uptake at 1 h ([1]; liver, 1 h, read-out: Liver uptake): 5.6 %ID/g
- tissue uptake at 3 h ([1]; liver, 3 h, read-out: Liver uptake): 6 %ID/g
- tissue uptake at 6 h ([1]; liver, 6 h, read-out: Liver uptake): 4.63 %ID/g
- tissue uptake at 24 h ([1]; liver, 24 h, read-out: Liver uptake): 2.47 %ID/g
- tissue uptake at 1 h ([1]; lung, 1 h, read-out: Lung uptake): 3.95 %ID/g
- tissue uptake at 3 h ([1]; lung, 3 h, read-out: Lung uptake): 3.71 %ID/g
- tissue uptake at 6 h ([1]; lung, 6 h, read-out: Lung uptake): 2.84 %ID/g
- tissue uptake at 24 h ([1]; lung, 24 h, read-out: Lung uptake): 0.512 %ID/g
- tissue uptake at 1 h ([1]; muscle, 1 h, read-out: Muscle uptake): 0.201 %ID/g
- tissue uptake at 3 h ([1]; muscle, 3 h, read-out: Muscle uptake): 0.253 %ID/g
- tissue uptake at 6 h ([1]; muscle, 6 h, read-out: Muscle uptake): 0.204 %ID/g
- tissue uptake at 24 h ([1]; muscle, 24 h, read-out: Muscle uptake): 0.005 %ID/g
- tissue uptake at 1 h ([1]; spleen, 1 h, read-out: Spleen uptake): 3.38 %ID/g
- tissue uptake at 3 h ([1]; spleen, 3 h, read-out: Spleen uptake): 3.31 %ID/g
- tissue uptake at 6 h ([1]; spleen, 6 h, read-out: Spleen uptake): 2.33 %ID/g
- tissue uptake at 24 h ([1]; spleen, 24 h, read-out: Spleen uptake): 0.688 %ID/g
- tissue uptake at 1 h ([1]; thyroid, 1 h, read-out: Thyroid uptake): 0.393 %ID/g
- tissue uptake at 3 h ([1]; thyroid, 3 h, read-out: Thyroid uptake): 0.748 %ID/g
- tissue uptake at 6 h ([1]; thyroid, 6 h, read-out: Thyroid uptake): 0.776 %ID/g
- tissue uptake at 24 h ([1]; thyroid, 24 h, read-out: Thyroid uptake): 0.493 %ID/g
- tissue uptake at 1 h [1, 6]: 0.18 ± 0.062 %ID/g
- tissue uptake at 3 h [1, 7]: 0.23 ± 0.152 %ID/g
- tissue uptake at 6 h [1, 8]: 0.26 ± 0.166 %ID/g
- tissue uptake at 24 h [1, 9]: 0.27 ± 0.016 %ID/g
- tissue uptake at 1 h ([1]; uterus, 1 h, read-out: Uterus uptake): 0.414 %ID/g
- tissue uptake at 3 h ([1]; uterus, 3 h, read-out: Uterus uptake): 0.546 %ID/g
- tissue uptake at 6 h ([1]; uterus, 6 h, read-out: Uterus uptake): 0.408 %ID/g
- tissue uptake at 24 h ([1]; uterus, 24 h, read-out: Uterus uptake): 0.151 %ID/g
- Tumor uptake [2, 5]: 0.397±0.1231 % injected dose/gram tissue
- Tumor uptake ([2]; 24 h, listed as 131 I-Iodo Analogue of Tamoxifen, 1440 min): 0.397 % injected dose/gram tissue
- tissue uptake at 1 h ([2]; blood, 10 uCi/rat, 1 h, read-out: Blood uptake): 0.155 ± 0.004 %ID/g
- tissue uptake at 3 h ([2]; blood, 10 uCi/rat, 3 h, read-out: Blood uptake): 0.12 ± 0.0137 %ID/g
- tissue uptake at 6 h ([2]; blood, 10 uCi/rat, 6 h, read-out: Blood uptake): 0.086 ± 0.0018 %ID/g
- tissue uptake at 24 h ([2]; blood, 10 uCi/rat, 24 h, read-out: Blood uptake): 0.036 ± 0.0001 %ID/g
- tissue uptake at 1 h ([2]; kidney, 10 uCi/rat, 1 h, read-out: Kidney uptake): 1.3 ± 0.0839 %ID/g
- tissue uptake at 3 h ([2]; kidney, 10 uCi/rat, 3 h, read-out: Kidney uptake): 1.49 ± 0.107 %ID/g
- tissue uptake at 6 h ([2]; kidney, 10 uCi/rat, 6 h, read-out: Kidney uptake): 1.39 ± 0.116 %ID/g
- tissue uptake at 24 h ([2]; kidney, 10 uCi/rat, 24 h, read-out: Kidney uptake): 0.573 %ID/g
- tissue uptake at 1 h ([2]; liver, 10 uCi/rat, 1 h, read-out: Liver uptake): 6.746 ± 0.0546 %ID/g
- tissue uptake at 3 h ([2]; liver, 10 uCi/rat, 3 h, read-out: Liver uptake): 6.73 ± 0.122 %ID/g
- tissue uptake at 6 h ([2]; liver, 10 uCi/rat, 6 h, read-out: Liver uptake): 4.67 ± 0.461 %ID/g
- tissue uptake at 24 h ([2]; liver, 10 uCi/rat, 24 h, read-out: Liver uptake): 2.71 %ID/g
- tissue uptake at 1 h ([2]; lung, 10 uCi/rat, 1 h, read-out: Lung uptake): 2.83 ± 0.14 %ID/g
- tissue uptake at 3 h ([2]; lung, 10 uCi/rat, 3 h, read-out: Lung uptake): 3.04 ± 0.411 %ID/g
- tissue uptake at 6 h ([2]; lung, 10 uCi/rat, 6 h, read-out: Lung uptake): 3.06 ± 0.458 %ID/g
- tissue uptake at 24 h ([2]; lung, 10 uCi/rat, 24 h, read-out: Lung uptake): 1.12 %ID/g
- tissue uptake at 1 h ([2]; muscle, 10 uCi/rat, 1 h, read-out: Muscle uptake): 0.214 ± 0.0176 %ID/g
- tissue uptake at 3 h ([2]; muscle, 10 uCi/rat, 3 h, read-out: Muscle uptake): 0.242 ± 0.187 %ID/g
- tissue uptake at 6 h ([2]; muscle, 10 uCi/rat, 6 h, read-out: Muscle uptake): 0.253 ± 0.0208 %ID/g
- tissue uptake at 24 h ([2]; muscle, 10 uCi/rat, 24 h, read-out: Muscle uptake): 0.114 %ID/g
- tissue uptake at 1 h [2, 6]: 0.3 ± 0.033 %ID/g
- tissue uptake at 3 h [2, 7]: 0.42 %ID/g
- tissue uptake at 6 h [2, 8]: 0.48 ± 0.107 %ID/g
- tissue uptake at 24 h [2, 9]: 0.4 ± 0.123 %ID/g
- tissue uptake at 1 h ([2]; uterus, 10 uCi/rat, 1 h, read-out: Uterus uptake): 0.334 ± 0.0485 %ID/g
- tissue uptake at 3 h ([2]; uterus, 10 uCi/rat, 3 h, read-out: Uterus uptake): 0.4 ± 0.132 %ID/g
- tissue uptake at 6 h ([2]; uterus, 10 uCi/rat, 6 h, read-out: Uterus uptake): 0.559 ± 0.0982 %ID/g
- tissue uptake at 24 h ([2]; uterus, 10 uCi/rat, 24 h, read-out: Uterus uptake): 0.335 %ID/g
- uterus:muscle uptake ratio ([3]; 24 h postinjection): 4.6
- Rabbit uterus uptake after DES block (in words) ([3]; listed as 131 l-iodotamoxifen): the uterus showed decreased uptake
Structure (SMILES): CCN(CC)CCOc1ccc(/C(=C(/CCC[131I])c2ccccc2)c2ccccc2)cc1 [^131 I-IODOTAMOXIFEN]
- Tissue uptake findings (in words) [1]: both tumor and uterus uptake can be blocked
- Tissue uptake findings (in words) ([1]; listed as 131 I-ITX): both tumor and uterus value were decreased in 6 h blocking group
- Tumor uptake ([2]; 1 h, listed as 131 I-Iodo Analogue of Tamoxifen, 60 min): 0.303 ± 0.0333 % injected dose/gram tissue
- Tumor uptake ([2]; 3 h, listed as 131 I-Iodo Analogue of Tamoxifen, 180 min): 0.422 ± 0.0389 % injected dose/gram tissue
- Tumor uptake ([2]; 6 h, listed as 131 I-Iodo Analogue of Tamoxifen, 360 min): 0.479 ± 0.1065 % injected dose/gram tissue
- Rabbit uterus uptake after DES block (in words) ([3]; listed as [^131 I]ITX): rabbit uterus uptake can be blocked by pretreatment with DES
- Rabbit uterus uptake after DES block (in words) ([3]; listed as [^131 ]ITX): increased uptake can be blocked by pretreatment of the rabbit with DES

Reference: patent US6096874A (Board of Regents, the University of Texas System, priority 1995, dated 2000)
